We go through two compounds from patent publication US11406592B2, “Drug delivery methods, structures, and compositions for nasolacrimal system” (Mati Therapeutics Inc., priority 2006, dated 2022).

The nature of data set [1]: Bimatoprost bulk sample elution, normalized to ng per device per day. Particulars: for zero order elution rate: about 90 days. Format: physicochemical. As for the experimental part:
Bulk samples of 1% Bimatoprost having a known diameter of 0.076 cm (0.76 mm) were prepared. The height of each sample was determined from the weight and known diameter of the sample.
The calculated heights ranged from 0.33 cm to 0.42 cm. The exposed surface area on each end of each bulk sample was approximately 0.045 cm^2, providing volumes of 0.019 cm^3 and 0.015 cm^3 for the 0.42 and 0.33 cm samples, respectively. The exposed an exposed surface area of samples calculated from the height and diameter without a drug sheath was approximately 0.1 cm^2. Three formulations were evaluated: 1) silicone 4011, 1% Bimatoprost, 0% surfactant; 2) silicone 4011, 1% Bimatoprost, approximately 11% surfactant; and 3) silicone 4011, 1% Bimatoprost, approximately 33% surfactant. The elution data measured for the bulk samples with formulation 1, 2 and 3 were normalized to ng per device per day (ng/device/day) assuming a surface area of the bulk device is 0.1 cm^2 and the surface area of the clinical device is 0.00078 cm^2 (0.3 mm diameter). […] The normalized elution profile is about 10 ng per day. […] Similar formulations can be used with drug core sheaths and a shaped exposed surface of the core exposed to the tear to increase the exposed surface area as described above and deliver the drug in therapeutic amounts over an extended period.
In some embodiments, the core can comprise a 0.76 mm diameter core with an exposed surface diameter of 0.76 mm, corresponding to an exposed surface area of 0.0045 cm^2. The core can be covered with a sheath to define the exposed surface of the core as described above The normalized elution profile for such a device, based on the bulk sample data above, is approximately 6 times (0.0045 cm^2/0.00078 cm^2) the elution profile for the device with a 0.3 mm diameter exposed surface area. Thus, a zero order elution profile with an elution rate of about 60 ng per day can be obtained over a period of about 90 days. If the exposed surface area is increased to about 0.0078 cm2, for example with many of the exposed surface shapes as described above, the zero order elution rat is about 100 ng per day over a period of about 90 days. The concentration can also be increased from 1%. Similar elution profiles can be obtained with Latanoprost.

Data set [2] in a line: Latanoprost elution from drug cores of four formulations (silicone 4011, 6385 and/or NaCl). Format: physicochemical. Conditions: formulations A-D, non-sterile drug cores. The source says: Drug cores were manufactured as described above with Latanoprost and silicone 4011, 6385 and/or NaCl. Four formulations were manufactured as follows: A) silicone 4011, approximately 20% Latanoprost, and approximately 20% NaCL; B) silicone 4011, approximately 20% Latanoprost, and approximately 10% NaCl; C) silicone 4011, approximately 10% Latanoprost, and approximately 10% NaCl; and D) silicone 6385, approximately 20% Latanoprost. […] The results shown are for non-sterile drug cores. Similar results have been obtained with sterile drug cores of Latanoprost.

The nature of data set [3]: Latanoprost drug core elution study (in vitro), 7.4 pH buffer, HPLC. It counts as physicochemical. Particulars: for Duration: calculated time when ~10% of original drug remains. The source says: Drug cores as described above have been fabricated with different cross sectional sizes of 0.006 inches, 0.012 inches, and 0.025 inches, and drug concentrations of 5%, 10% and 20% in a silicone matrix. Theses drug cores can be made with a Syringe Tube and Cartridge Assembly, Mixing Latanoprost with Silicone, and Injecting the mixture into a polyimide tube which is cut to desired lengths and sealed. The length of the drug cores were approximately 0.80 to 0.95 mm, which for a diameter of 0.012 inches (0.32 mm) corresponds to total Latanoprost content in the drug cores of approximately 3.5 μg, 7 μg and 14 μg for concentrations of 5%, 10% and 20%, respectively.
Syringe Tube and Cartridge Assembly. 1. Take polyimide tubing of three different diameters 0.006 inches, 0.0125 inches and 0.025 inches. 2. Cut polyimide tubing of different diameters to ˜15 cm length. 3. Insert Polyimide tubes into a Syringe Adapter. 4. Adhesive bond polyimide tube into luer adapter (Loctite, low viscosity UV cure). 5. Trim end of assembly. 6. Clean the cartridge assembly using distilled water and then with methanol and dry it in oven at 60° C.
Mix Latanoprost with Silicone. Prepare Latanoprost. Latanoprost is provided as a 1% solution in methylacetate. Place the appropriate amount of solution into a dish and using a nitrogen stream, evaporate the solution until only the Latanoprost remains. Place the dish with the Latanoprost oil under vacuum for 30 minutes. Combine Latanoprost with silicone. Prepare three different concentrations of Latanoprost (5%, 10% and 20%) in silicon Nusil 6385 and inject it into tubing of different diameters (0.006 in, 0.012 in and 0.025 inches) to generate 3×3 matrixes. The percent of Latanoprost to silicone is determined by the total weight of the drug matrix. Calculation: Weight of Latanoprost/(weight of Latanoprost+weight of silicone)×100=percent drug.
Inject tube. 1. Insert Cartridge and Polyimide tubes assembly into 1 ml syringe. 2. Add one drop of catalyst, (MED-6385 Curing Agent) in the syringe. 3. Force excess catalyst out of the polyimide tube with clean air. 4. Fill syringe with silicone drug matrix. 5. Inject tube with drug matrix until the tube is filled or the syringe plunger becomes too difficult to push. 6. Close off the distal end of the polyimide tube and maintain pressure until the silicone begins to solidify. 7. Allow to cure at room temperature for 12 hours. 8. Place under vacuum for 30 minutes. 9. Place tube in right size trim fixture (prepared in house to hold different size tubing) and cut drug inserts to length (0.80-0.95 mm).
Testing. Elution study (in vitro). 1. Place 10 plugs of same size and same concentration per centrifuge tube and add 1.5 ml of 7.4 pH buffer solution to it. 2. Change the solvent with fresh 7.4 pH buffer after appropriate time. 3. Take HPLC of the eluant at 210 nm with PDA detector 2996 using Sunfire C18, 3 mm×10 mm column (Waters Corporation, Milford, Mass.). Acetonitrile and water mixture is used for gradient elution. Calibration was done in house before and after each analysis, using in-house standards with precisely weighed concentration of Latanoprost. 4. Calculate the amount of drug release per day per device for different size tubings having different concentrations of Latanoprost. 5. Plot elution rate vs area and concentration for day 1 and day 14.

The next data set deals with IOP. Particulars: cited from earlier work.

`CCNC(=O)CCC/C=C\C[C@@H]1[C@@H](/C=C/[C@@H](O)CCc2ccccc2)[C@H](O)C[C@@H]1O` [Bimatoprost]: in data set [1] (each of formulations 1-3, from about ten days to about 90 days), the release kinetics entry is “approximately zero order release kinetics”. In addition, the “zero order elution rate” value is given as “about 60 ng per day” in data set [1] (extrapolated from bulk data to 0.76 mm exposed surface diameter (0.0045 cm^2)) and “about 100 ng per day” in data set [1] (extrapolated from bulk data to exposed surface area about 0.0078 cm2). Besides, in data set [1] (silicone 4011 with 1% Bimatoprost, formulations 1-3 (0%, 11%, 33% surfactant), normalized to 0.3 mm exposed surface diameter (0.00078 cm^2)), the normalized elution profile entry was “about 10 ng per day”.

On to `CC(C)OC(=O)CCC/C=C\C[C@@H]1[C@@H](CC[C@@H](O)CCc2ccccc2)[C@H](O)C[C@@H]1O` [Latanoprost], for which the elution rate result in data set [2] (by 3 weeks (21 days)) is reported as “about 100 ng per device per day”; in data set [3] (14 μg core (20%), 0.32 mm diameter, 0.95 mm long, from about 10 to 40 days) it was “approximately 100 ng per day”. Moreover, the initial elution rate entry in data set [2] (initial) is recorded as “approximately 300 ng per device per day”. For the same compound, in data set [3] (7 μg core (10%), 0.32 mm diameter, 0.95 mm long, from 10 to 20 days), the “elution rate compared with the 14 μg core” value is “comparable rates”. Also, the “initial elution of Latanoprost from the plug” value in data set [3] (buffered saline elution system, initially) is recorded as “approximately 500 ng per day”. For the same compound, in data set [3] (buffered saline elution system, within 7-14 days, depending on initial concentration), the “elution of Latanoprost from the plug after drop-off” value is reported as “approximately 100 ng/day”. In addition, the “quantity of Latanoprost released” value is reported as “about 200 ng” in data set [3] (day 1, 0.006 inch diameter core (exposed surface area 0.02 mm^2)); roughly 400 ng in data set [3] (day 1, 0.012 inch diameter core (exposed surface area 0.07 mm^2)); roughly 1200 ng in data set [3] (day 1, 0.025 inch diameter core (exposed surface area 0.32 mm^2)); “about 25 ng” in data set [3] (day 14, 0.006 inch diameter core (exposed surface area 0.02 mm^2)); roughly 100 ng in data set [3] (day 14, 0.012 inch (0.32 mm) diameter core (exposed surface area 0.07 mm^2)); roughly 300 ng in data set [3] (day 14, 0.025 inch diameter core (exposed surface area 0.32 mm^2)). In addition, the Duration in data set [3] (total Latanoprost content 3.5 μg) is roughly 25 days; in data set [3] (total Latanoprost content 7 μg), roughly 45 days; in data set [3] (total Latanoprost content 14 μg), roughly 100 days. The “time effective in lowering IOP” value in the data set with IOP (about 200 ng of drug remaining on the eye after a drop of Xalatan) was “at least 24 hours”. The “IOP reduction relative to the 50 μg/mL QD dose” value in the data set on IOP (lowest doses of 12.5 μg/mL QD or 15 μg/mL BID) is recorded as 60-75%.
